Reference: PubChem BioAssay (NCI)
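Compound exposure: 48 hours, 5 concentrations, 96-well plates. TGI: concentration producing complete growth inhibition.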

What was measured:
Assay in all cases: NCI tumour cell line growth inhibition, 48 h
[1] = tested on: HS 578T breast
[2] = tested on: RPMI-8226 leukemia
[3] = tested on: NCI-H23 lung
[4] = tested on: SN12C renal
[5] = tested on: HT29 colon
[6] = tested on: HOP-92 NSCLC
[7] = tested on: KM12 colon
[8] = tested on: SNB-75 CNS
[9] = tested on: HCT-116 colon
[10] = tested on: SW-620 colon
[11] = tested on: SR leukemia
[12] = tested on: NCI-H522 lung
[13] = tested on: A498 renal
[14] = tested on: A549 NSCLC
[15] = tested on: MCF7 breast
[16] = tested on: SF-539 CNS
[17] = tested on: SF-268 CNS
[18] = tested on: SF-295 CNS
[19] = tested on: UACC-257 melanoma
[20] = tested on: MALME-3M melanoma
[21] = tested on: SNB-19 CNS
[22] = tested on: OVCAR-8 ovarian
[23] = tested on: DU-145 prostate
[24] = tested on: T-47D breast
[25] = tested on: HCC-2998 colon
[26] = tested on: SK-MEL-5 melanoma
[27] = tested on: MDA-MB-435
[28] = tested on: UO-31 renal
[29] = tested on: K-562 leukemia
[30] = tested on: SK-OV-3 ovarian
[31] = tested on: HL-60(TB) leukemia
[32] = tested on: 786-0 renal
[33] = tested on: IGROV1 ovarian
[34] = tested on: MDA-MB-231 breast
[35] = tested on: NCI/ADR-RES ovarian
[36] = tested on: U251 CNS
[37] = tested on: PC-3 prostate
[38] = tested on: RXF 393 renal
[39] = tested on: M14 melanoma
[40] = tested on: UACC-62 melanoma
[41] = tested on: TK-10 renal
[42] = tested on: CAKI-1 renal
[43] = tested on: CCRF-CEM leukemia
[44] = tested on: HCT-15 colon
[45] = tested on: NCI-H460 lung
[46] = tested on: MDA-N
[47] = tested on: COLO 205 colon
[48] = tested on: BT-549 breast
[49] = tested on: OVCAR-5 ovarian
[50] = tested on: EKVX NSCLC
[51] = tested on: SK-MEL-28 melanoma
[52] = tested on: OVCAR-3 ovarian
[53] = tested on: HOP-62 NSCLC
[54] = tested on: MOLT-4 leukemia
[55] = tested on: LOX IMVI melanoma
[56] = tested on: SK-MEL-2 melanoma
[57] = tested on: ACHN renal
[58] = tested on: OVCAR-4 ovarian
[59] = tested on: NCI-H226 lung

SMILES: Cc1cn2c(/C=C3/C(=O)Nc4ccccc43)c(-c3ccccc3)nc2s1
- TGI [1]: 91 µM
- TGI [2]: > 100 µM
- TGI [3]: > 100 µM
- TGI [4]: > 100 µM
- TGI [5]: > 100 µM
- TGI [6]: > 100 µM
- TGI [7]: > 100 µM
- TGI [8]: 66.8 µM
- TGI [9]: > 100 µM
- TGI [10]: > 100 µM
- TGI [11]: > 100 µM
- TGI [12]: > 100 µM
- TGI [13]: > 100 µM
- TGI [14]: > 100 µM
- TGI [15]: > 100 µM
- TGI [16]: 41.7 µM
- TGI [17]: > 100 µM
- TGI [18]: > 100 µM
- TGI [19]: > 100 µM
- TGI [20]: > 100 µM
- TGI [21]: 55.4 µM
- TGI [22]: > 100 µM
- TGI [23]: > 100 µM
- TGI [24]: > 100 µM
- TGI [25]: > 100 µM
- TGI [26]: > 100 µM
- TGI [27]: > 100 µM
- TGI [28]: 61.2 µM
- TGI [29]: > 100 µM
- TGI [30]: 76.4 µM
- TGI [31]: > 100 µM
- TGI [32]: 42.4 µM
- TGI [33]: > 100 µM
- TGI [34]: 57.7 µM
- TGI [35]: > 100 µM
- TGI [36]: > 100 µM
- TGI [37]: > 100 µM
- TGI [38]: 55.2 µM
- TGI [39]: > 100 µM
- TGI [40]: > 100 µM
- TGI [41]: 51.2 µM
- TGI [42]: > 100 µM
- TGI [43]: > 100 µM
- TGI [44]: > 100 µM
- TGI [45]: > 100 µM
- TGI [46]: > 100 µM
- TGI [47]: > 100 µM
- TGI [48]: > 100 µM
- TGI [49]: > 100 µM
- TGI [50]: > 100 µM
- TGI [51]: > 100 µM
- TGI [52]: > 100 µM
- TGI [53]: > 100 µM
- TGI [54]: > 100 µM
- TGI [55]: > 100 µM
- TGI [56]: 78.1 µM
- TGI [57]: > 100 µM

SMILES: O=C(O)CCCN1CCCCC1
- TGI [1]: > 100 µM
- TGI [2]: > 100 µM
- TGI [3]: > 100 µM
- TGI [4]: > 100 µM
- TGI [5]: > 100 µM
- TGI [6]: > 100 µM
- TGI [7]: > 100 µM
- TGI [8]: > 100 µM
- TGI [9]: > 100 µM
- TGI [10]: > 100 µM
- TGI [11]: > 100 µM
- TGI [58]: > 100 µM
- TGI [12]: > 100 µM
- TGI [13]: > 100 µM
- TGI [14]: > 100 µM
- TGI [17]: > 100 µM
- TGI [18]: > 100 µM
- TGI [19]: > 100 µM
- TGI [20]: > 100 µM
- TGI [21]: > 100 µM
- TGI [22]: > 100 µM
- TGI [23]: > 100 µM
- TGI [24]: > 100 µM
- TGI [25]: > 100 µM
- TGI [26]: > 100 µM
- TGI [27]: > 100 µM
- TGI [28]: > 100 µM
- TGI [29]: > 100 µM
- TGI [59]: > 100 µM
- TGI [32]: > 100 µM
- TGI [33]: > 100 µM
- TGI [34]: > 100 µM
- TGI [35]: > 100 µM
- TGI [36]: > 100 µM
- TGI [37]: > 100 µM
- TGI [38]: > 100 µM
- TGI [39]: > 100 µM
- TGI [40]: > 100 µM
- TGI [41]: > 100 µM
- TGI [42]: > 100 µM
- TGI [43]: > 100 µM
- TGI [44]: > 100 µM
- TGI [45]: > 100 µM
- TGI [46]: > 100 µM
- TGI [48]: > 100 µM
- TGI [49]: > 100 µM
- TGI [50]: > 100 µM
- TGI [51]: > 100 µM
- TGI [52]: > 100 µM
- TGI [53]: > 100 µM
- TGI [54]: > 100 µM
- TGI [55]: > 100 µM
- TGI [56]: > 100 µM
- TGI [57]: > 100 µM
